The target in one assay is T1, rat Orexin-2 receptor (Rattus norvegicus, UniProt P56719).
T1 construct: expressed in transfected cells
T1 sequence (P56719 1-460): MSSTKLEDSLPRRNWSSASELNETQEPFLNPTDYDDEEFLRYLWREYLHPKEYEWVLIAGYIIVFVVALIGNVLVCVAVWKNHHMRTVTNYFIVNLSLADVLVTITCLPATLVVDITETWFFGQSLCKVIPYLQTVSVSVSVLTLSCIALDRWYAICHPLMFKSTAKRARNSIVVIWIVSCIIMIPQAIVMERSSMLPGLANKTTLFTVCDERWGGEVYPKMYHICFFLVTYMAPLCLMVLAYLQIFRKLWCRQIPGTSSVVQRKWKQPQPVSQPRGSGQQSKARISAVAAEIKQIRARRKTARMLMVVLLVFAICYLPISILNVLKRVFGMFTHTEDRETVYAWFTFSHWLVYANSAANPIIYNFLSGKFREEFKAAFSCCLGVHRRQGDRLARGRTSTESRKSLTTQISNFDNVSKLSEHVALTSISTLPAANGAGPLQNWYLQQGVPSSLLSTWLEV
Briefly: FLIPR antagonist affinity at cloned rat OX2 receptor (RBL cells). The assay is classed as cell-based. The settings on record: read-out: fpKi. From the text:
(§1) Determination of Antagonist Affinity at Human Orexin-1 and 2 Receptors Using FLIPR
(§2) Adherent Chinese Hamster Ovary (CHO) cells, stably expressing the recombinant human Orexin-1 or human Orexin-2 receptors or Rat Basophilic Leukaemia Cells (RBL) stably expressing recombinant rat Orexin-1 or rat Orexin-2 receptors were maintained in culture in Alpha Minimum Essential Medium (Gibco/Invitrogen, cat. no.; 22571-020), supplemented with 10% decomplemented foetal bovine serum (Life Technologies, cat. no. 10106-078) and 400 μg/mL Geneticin G418 (Calbiochem, cat. no. 345810). Cells were grown as monolayers under 95%:5% air:CO2 at 37° C. […]
(§3) Compounds of the invention were tested in a final assay concentration range from 1.66×10^−5M to 1.58×10^−11 M. Compounds of the invention were dissolved in dimethylsulfoxide (DMSO) at a stock concentration of 10 mM. […] This final concentration of hOrexin A was equivalent to the calculated EC80 for hOrexinA agonist potency in this test system. […]
(§4) The loaded cells were then incubated for 10 min at 37° C. with test compound. The plates were then placed into a FLIPR™ (Molecular Devices, UK) to monitor cell fluorescence (λex=488 nm, λEM=540 nm) (Sullivan E, Tucker E M, Dale I L. Measurement of [Ca^2+]i using the fluometric imaging plate reader (FLIPR). In: Lambert DG (ed.), Calcium Signaling Protocols. New Jersey: Humana Press, 1999, 125-136). […]

A further assay concerns the target T2, rat Orexin-1 receptor (Rattus norvegicus, UniProt P56718).
T2 construct: expressed in transfected cells
T2 sequence (P56718 1-416): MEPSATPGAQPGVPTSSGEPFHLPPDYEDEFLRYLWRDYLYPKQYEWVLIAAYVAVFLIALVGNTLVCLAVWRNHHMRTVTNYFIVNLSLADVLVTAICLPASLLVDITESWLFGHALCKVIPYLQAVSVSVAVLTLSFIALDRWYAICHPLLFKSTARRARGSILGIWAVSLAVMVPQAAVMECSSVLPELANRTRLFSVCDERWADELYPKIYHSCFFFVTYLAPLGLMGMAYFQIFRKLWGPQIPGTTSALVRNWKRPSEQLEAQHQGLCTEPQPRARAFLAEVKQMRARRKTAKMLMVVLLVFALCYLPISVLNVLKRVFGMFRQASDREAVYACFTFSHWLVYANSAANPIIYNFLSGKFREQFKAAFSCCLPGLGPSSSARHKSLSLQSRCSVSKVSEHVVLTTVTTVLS
In words: FLIPR antagonist affinity at cloned rat OX1 receptor (RBL cells). The settings on record: read-out: fpKi. In kind it is cell-based.
Source text: as §1, §2, §3, §4

In assay [1] the test system is rats. The settings on record: cited from earlier work.
Assay [2] relates to rats. The note with it: cited from earlier work. This is another data set of the same source.
The test system of assay [3] is rats. The note with it: central administration at the onset of the normal sleep period; cited from earlier work.
The test system of another assay is freely-feeding rats. The settings on record: central administration, 4 hour time period; cited from earlier work.

No end group written: not given here.

Consider `Cc1nc(C(=O)N2CCCC[C@H]2Cc2cn3cccc(F)c3n2)c(-c2ccccc2)s1` [Example 13, 8-fluoro-2-({(2S)-1-[(2-methyl-5-phenyl-1,3-thiazol-4-yl)carbonyl]-2-piperidinyl}methyl)imidazo[1,2-a]pyridine], for which the Ki on rat Orexin-2 receptor was in the range of 0.316 to 1 nM; on rat Orexin-1 receptor it was 1 to 5.01 nM.
With `Cc1nc(C(=O)N2CCCC[C@H]2Cc2cn3cc(F)cc(C)c3n2)c(-c2ccccc2)s1` [Example 31, 6-fluoro-8-methyl-2-({(2S)-1-[(2-methyl-5-phenyl-1,3-thiazol-4-yl)carbonyl]-2-piperidinyl}methyl)imidazo[1,2-a]pyridine], the Ki on rat Orexin-2 receptor was in the range of 0.316 to 1 nM; at rat Orexin-1 receptor, 1 to 5.01 nM.
For `Cc1nc2ccc(NC(=O)Nc3ccnc4cccnc34)cc2o1` [SB334867], the high-fat pellet self-administration result in the assay with rats [1] is “attenuated”. Further, the hedonic eating result in the assay with rats [2] was “potently reduced”.
Take “orexin-A: ligand for the orexin-1 receptor; an agonist of the orexin receptors (QPLPDCCRQKTCSCRLYELLHGAGNHAAGILTL; ends and bridges not checked; cysteine pairing not given here; UniProt O43612 34-66, looked up)”: the arousal result in the assay with rats [3] is “dose-related increase”. For the same molecule, the “increase of food intake over control rats receiving vehicle” value in the assay on freely-feeding rats is “approximately four-fold”.

Values taken from patent publication US20090022670A1, “NOVEL COMPOUNDS” (priority 2007, published 2009).
